Counter-ions that a name gives are not always drawn.
What was measured:
[1] = tested on: extracellular 5-HT in the NAc; test: Fiber photometry with GRAB5-HT sensor in the NAc of freely moving mice; assay type: in vivo; conditions: for extracellular 5-HT in the NAc (GRAB5-HT fluorescence): 10 mg kg-1 intraperitoneal
Procedure: (§1) All in vivo experiments were performed in adult mice (>6 weeks old). For the photometry and microdialysis experiments, which were carried out in Florida, male C57BL/6J mice from The Jackson Laboratory (Bar Harbor, ME, USA) were group-housed in polycarbonate cages (GM500, Tecniplast, Buguggiate, Italy) with lights on from 7 a.m. to 7 p.m. Food and water were provided ad libitum. Photometry and microdialysis experiments were performed in accordance with a protocol approved by the Institutional Animal Care and Use Committee at Florida Atlantic University. For the behavioral experiments, which were carried out in Vienna, C57BL/6N mice from Charles River (Sulzfeld, Germany) were group-housed in polycarbonate cages with lights on from 7 a.m. to 7 p.m. Food and water were provided ad libitum. Behavioral experiments were performed in accordance with a protocol approved by the Austrian national ethical committee on animal care and use (Bundesministerium für Wissenschaft und Forschung: BMWFW-66.009/0016-WF/V/3b/2015). All animal procedures were conducted in agreement with the ARRIVE guidelines and the U.K. Animal (Scientific Procedures) Act, 1986, and associated guidelines, EU Directive 2010/63/EU for animal experiments. Mice were given at least 1 week to acclimate before being used in any experiments.
Mice were anesthetized with isoflurane (5% induction, 2% maintenance) and placed into a stereotaxic frame (Kopf Instruments, Tujunga, CA, USA) oriented in the flat skull position. Ophthalmic ointment was applied to prevent drying of the eyes. Ketoprofen (10 mg kg^−1) was administered subcutaneously (s.c.), whereas bupivacaine and lidocaine were administered locally (s.c.; 100 µl of sterile saline containing 0.05% bupivacaine and 0.2% lidocaine) to the surgical site atop the head. A midline incision was made through the skin on the dorsal surface of the head to expose the skull. Fascia was removed, coordinates for the NAc were determined relative to bregma: anterior/posterior = 1.54 mm; medial/lateral = 0.7 mm; dorsal/ventral = −4.1 mm. A 1 mm burr hole was drilled through the skull. […] For the mice used for fiber photometry, 4*10^12 genome copies of AAV9-hSyn-5-HT2h or 10^10 genome copies of AAV-hSyn-DA2m were delivered into the NAc at an infusion rate of 100 nl min^−1 (total volume of 1 µl) using a 34-gauge needle attached to a 10 µl Nanofil microsyringe (Hamilton, Reno, NV, USA), as previously described. Following injection of the virus, an optical fiber was lowered through the burr hole and secured with glass ionomer cement. Three 1.6 mm screws (00-96X1/16 39052, Plastics One Inc., Roanoke, VA, USA) were affixed to the skull to support a cement stage that was created to secure the implanted guide cannulae or optical fiber. Mice were singly housed following surgery and allowed 6 days of recovery for the microdialysis experiments or 21 days for the photometry experiments. Food and water were available ad libitum.
To monitor light emitted from the G-protein coupled receptor-activation-based 5-HT (GRAB5-HT) and DA (GRABDA) sensors, fiber photometry was performed as described. Briefly, a light emitting diode (465 nm) (CLED_465, Doric Lenses, Quebec, QC, Canada), reflected through a dichroic mirror, was coupled to an optical fiber (200 µm core/225 cladding diameter; Thorlabs, Newton, NJ, USA) that was glued to a metal ferrule (Doric Lenses, Quebec, QC, Canada) and implanted into the NAc as described above. Emitted, band-pass filtered light (500–550 nm, FMC6, Doric Lenses, Quebec,QC, Canada) was detected with a photodetector (Newport Femtowatt silicone PIN; New Focus, San Jose, CA, USA). Data were recorded using a RZ5P lock-in amplifier (Tucker-Davis Technologies, Alachua, FL, USA) controlled with Synapse software. Sinusoidal excitation was delivered at 210 Hz by an LED driver Doric Lenses, LEDD_4) at low power mode. A demodulated signal was low-pass filtered at 6 Hz and digitized at 1017 Hz. […]

human DAT = target: T1, human DAT (Homo sapiens, UniProt Q01959); test: DAT uptake inhibition assay in HEK293 cells ([3H]MPP+); assay type: cell-based; conditions: for DAT/SERT ratio: (1/DAT IC50)/(1/SERT IC50), higher values indicate higher DAT-selectivity
T1 construct: expressed in transfected cells
Procedure: (§2) Human embryonic kidney 293 (HEK293) cells stably expressing the human isoforms of either DAT or SERT were maintained in Dulbecco’s Modified Eagle Medium (DMEM), supplemented with 10% fetal calf serum at a subconfluent state in humidified atmosphere (5% CO2, 37 °C).
(§3) Uptake inhibition assays were performed as described earlier. Briefly, HEK293 cells stably expressing human SERT or DAT were seeded onto poly- D-lysine (PDL) coated 96-well plates (40,000 cells well^−1) the day before an experiment. Prior to the uptake inhibition assay, DMEM was replaced with Krebs-HEPES buffer (KHB, 25 mM HEPES, 120 mM NaCl, 5 mM KCl, 1.2 mM CaCl2, 1.2 mM MgSO4, and 5 mM D-glucose, pH 7.3) and the cells were preincubated with test drugs for 5 min at room temperature. Uptake assays were initiated by adding 20 nM [^3H]MPP^+ to DAT cells or 100 nM [^3H]5-HT to SERT cells. After 180 s (DAT) or 60 s (SERT), the tritiated substrate was removed by aspiration. Cells were washed once with ice-cold KHB, then lysed in 1% sodium dodecyl sulfate (SDS) and subjected to liquid scintillation counting to quantify tritium accumulated in each sample. Non-specific uptake was determined in the presence of mazindol (1 µM) for DAT or paroxetine (1 µM) for SERT and subtracted throughout.

human SERT [2] = target: T2, human SERT (Homo sapiens, UniProt P31645); test: [3H]5-HT release assay in HEK293 cells (superfusion); assay type: cell-based; conditions: 10 µM, SERT-expressing HEK293 cells
T2 construct: expressed in transfected cells
Procedure: HEK293 cells stably expressing SERT were seeded onto PDL-coated glass coverslips (5 mm diameter) that were placed into 96-well plates at a density of 40,000 cells per well the day before the experiment. Cells were preloaded with [^3H]5-HT (0.4 µM, 20 min at 37 °C). Subsequently, the cells were transferred into small chambers with a total volume of 200 µl and superfused with KHB at a flow rate of 0.7 ml per min for 40 min to establish a stable baseline before the collection of 2-min fractions was initiated. For each experiment, three basal fractions were collected before the cells were exposed to various concentrations (given in the figure legends) of the test drugs for five fractions. Subsequently, the cells were superfused with 1% SDS for three final fractions that served to determine the total amount of radioactivity present within the cells at the end of each experimental run. The amount of tritium within each fraction was determined by liquid scintillation counting, and release was expressed as percentage of radioactivity released in relation to the total radioactivity present at the beginning of that fraction. Observations from superfusion experiments were excluded in case of premature exposure to SDS.

human SERT [3] = target: T2, human SERT; test: SERT uptake inhibition assay in HEK293 cells ([3H]5-HT); assay type: cell-based
Procedure: as §2, §3

C57BL/6N mice [4] = test: Forced-swim test (FST); assay type: in vivo; conditions: for immobility time in the FST versus vehicle: mice
Procedure: as §1
(§4) For behavioral assays, animals were assigned to treatment groups and injected with test drugs by an unblinded observer.
The FST was performed as previously described. In brief, mice were placed for 6 min in a beaker (diameter: 19 cm, height: 23 cm), halfway filled with water (22–23 °C), and the immobility time was quantified using the software Videotrack (Viewpoint, Champagne au Mont d’Or, France). Immobility was defined as the absence of any movement, except for those required to keep the head above the water. The time spent immobile during the final 4 min of the test was used as a measure of behavioral despair. Animal sample size was confirmed using a post hoc analysis of the achieved power using G*Power3.1 [29]. Using a significance level (α) of 0.05 and an effect size f = 2.5 and a sample size of 6 animals/group we achieved the commonly accepted statistical power (1−β) of 0.8.

C57BL/6N mice [5] = test: Open-field test; assay type: in vivo; conditions: for horizontal locomotor activity (total distance traveled) in the open field test: 1 h
Procedure: as §1, §4
Mice were placed into an open field arena (27.3 × 27.3 × 27.3 cm) surrounded by infrared beams to track movements. The total distance traveled over 1 h was recorded using Activity Monitor (Med Associates Inc., St. Albans, VT, USA) and interpreted as a measure of the psychostimulant effects. Animal sample size was confirmed using a post hoc analysis of the achieved power using G*Power3.1 [29]. Using a significance level (α) of 0.05 and an effect size f = 1.92 and a sample size of 7.5 animals (5–10)/group we achieved the commonly accepted statistical power (1−β) of 0.8.

VMATs = test: VMAT uptake inhibition assay in PC12 cells; assay type: cell-based; conditions: all at 30 µM, relative to inhibition by 30 µM reserpine
Procedure: VMAT uptake inhibition assays were conducted as previously described, with some modifications. In brief, […] PC12 cells per well were seeded in 24-well plates the day before experimentation. The cells were pretreated with 100 nM nisoxetine and mazindol to inhibit non-specific binding. PC12 cells were then preincubated with 200 µM digitonin to permeabilize membranes and were kept at room temperature on a plate shaker at low velocity for 30 min. Cells were treated with test drugs and shaken for another 10 min. Tritiated substrate (0.05 µM [^3H]5-HT) was added, and the cells incubated on the plate shaker for 30 min. To terminate uptake, cells were transferred into 1.5 ml Eppendorf tubes, centrifuged at 5000 rpm for 5 min. The supernatant was aspirated, cells were washed with cold KHB, recentrifuged and lysed with 200 µl SDS. The solutions were transferred into vials containing 2 ml scintillation cocktail and radioactivity was determined via beta-scintillation counting (Perkin Elmer, Waltham, MA, USA). For analysis, inhibitory potency of test drugs was normalized to uptake inhibition caused by the potent VMAT inhibitor reserpine.

[6] = indicated doses (1, 5 and 10 mg kg-1) intraperitoneal

T2 sequence (P31645 whole entry, the tested form may be a part): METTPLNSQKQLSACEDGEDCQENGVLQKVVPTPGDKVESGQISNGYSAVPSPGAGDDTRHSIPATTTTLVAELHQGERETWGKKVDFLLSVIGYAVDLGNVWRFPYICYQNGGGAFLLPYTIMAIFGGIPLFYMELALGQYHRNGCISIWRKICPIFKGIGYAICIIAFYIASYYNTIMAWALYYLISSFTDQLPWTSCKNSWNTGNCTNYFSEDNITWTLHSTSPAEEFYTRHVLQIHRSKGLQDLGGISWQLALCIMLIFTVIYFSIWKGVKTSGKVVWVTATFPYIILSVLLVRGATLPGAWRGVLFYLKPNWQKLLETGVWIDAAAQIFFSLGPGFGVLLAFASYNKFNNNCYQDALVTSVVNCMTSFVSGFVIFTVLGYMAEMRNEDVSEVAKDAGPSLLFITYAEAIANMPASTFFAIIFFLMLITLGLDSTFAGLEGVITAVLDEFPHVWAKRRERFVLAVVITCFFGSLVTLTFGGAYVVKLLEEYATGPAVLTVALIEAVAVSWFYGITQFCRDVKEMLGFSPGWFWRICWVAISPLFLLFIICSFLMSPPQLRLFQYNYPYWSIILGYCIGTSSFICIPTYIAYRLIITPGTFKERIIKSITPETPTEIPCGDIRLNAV
T1 sequence (Q01959 whole entry): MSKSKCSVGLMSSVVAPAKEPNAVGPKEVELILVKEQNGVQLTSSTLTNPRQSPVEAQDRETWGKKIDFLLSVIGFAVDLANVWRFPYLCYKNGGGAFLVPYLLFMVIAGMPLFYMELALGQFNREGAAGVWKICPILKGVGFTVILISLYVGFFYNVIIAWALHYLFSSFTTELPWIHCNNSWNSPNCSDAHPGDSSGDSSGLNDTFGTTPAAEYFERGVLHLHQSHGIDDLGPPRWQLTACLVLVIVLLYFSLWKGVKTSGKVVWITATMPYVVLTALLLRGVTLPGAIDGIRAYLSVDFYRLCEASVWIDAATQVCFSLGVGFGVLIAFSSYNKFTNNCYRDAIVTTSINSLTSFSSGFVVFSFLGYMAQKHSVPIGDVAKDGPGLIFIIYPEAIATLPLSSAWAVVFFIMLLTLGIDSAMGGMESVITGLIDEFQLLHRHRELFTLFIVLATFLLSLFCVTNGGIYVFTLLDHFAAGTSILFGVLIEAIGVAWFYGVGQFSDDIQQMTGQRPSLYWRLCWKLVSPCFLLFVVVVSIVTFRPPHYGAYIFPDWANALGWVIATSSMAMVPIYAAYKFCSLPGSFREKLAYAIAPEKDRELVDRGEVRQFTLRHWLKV

Row | Compound | extracellular 5-HT in the NAc (GRAB5-HT fluorescence) [1] | IC50 (human DAT) | DAT/SERT ratio (human DAT) | effect on release of preloaded [3H]5-HT (human SERT [2]) | IC50 (human SERT [3]) | immobility time in the FST versus vehicle (C57BL/6N mice [4]; 10 mg kg-1 intraperitoneal) | further results
1 | CCN[C@@H](C)Cc1cccc(C(F)(F)F)c1 [D-FEN, d-fenfluramine, reference compound] | increased 5-HT when compared to saline | – | – | – | – | – | GRAB5-HT basal fluorescence in the NAc ([1]; 3 and 10 mg kg-1 intraperitoneal): increased the basal fluorescence in a dose-dependent manner; relative GRAB5-HT fluorescence at peak versus saline ([1]; t = 700-900 s post injection, drug alone, D-FEN 10, S-4-MC 5, S-4-TFMMC 10 mg kg-1 intraperitoneal): Significant effects
2 | CN[C@H](C)C(=O)c1ccccc1 [R-MC, N-methylcathinone] | – | 10.6 µM | 90.7 | did not alter basal release of 5-HT | 964 µM | – | –
3 | CN[C@@H](C)C(=O)c1ccccc1 [S-MC, N-methylcathinone] | – | 9.1 µM | 43.2 | little effect | 393 µM | – | –
4 | CN[C@H](C)C(=O)c1ccc(C)cc1 [R-4-MMC, 4-methyl-N-methylcathinone] | – | 12.5 µM | 6.2 | did not alter basal release of 5-HT | 77.1 µM | significantly reduced immobility time | horizontal locomotor activity (total distance traveled) in the open field test (C57BL/6N mice [5]; 10 mg kg-1 intraperitoneal): significantly affected horizontal locomotor activity
5 | CN[C@H](C)C(=O)c1ccc(C(F)(F)F)cc1 [R-4-TFMMC, 4-trifluoromethyl-N-methylcathinone] | no effect on 5-HT was observed | 153 µM | 0.15 | did not alter basal release of 5-HT | 22.6 µM | had no effect | immobility time in the FST versus vehicle (C57BL/6N mice [4]; 1 mg kg-1 intraperitoneal): had no effect; immobility time in the FST versus vehicle (C57BL/6N mice [4]; 5 mg kg-1 intraperitoneal): had no effect
6 | CN[C@@H](C)C(=O)c1ccc(C)cc1 [S-4-MMC, 4-methyl-N-methylcathinone] | – | 10.3 µM | 1.06 | robustly increased | 10.9 µM | significantly reduced immobility time versus vehicle | time spent immobile in the FST, male and female mice (C57BL/6N mice [4]; 5 mg kg-1 intraperitoneal, male and female mice): significantly reduced the time spent immobile regardless of sex; immobility time in the FST versus vehicle (C57BL/6N mice [4]; 5 mg kg-1 intraperitoneal): significantly reduced immobility time versus vehicle; inhibition of VMAT-mediated transport compared to MDMA (VMATs): no difference; vertical counts in the open field test (C57BL/6N mice [5]; [6]): affected vertical counts; horizontal locomotor activity (total distance traveled) in the open field test (C57BL/6N mice [5]; [6]): did not differ from vehicle
7 | CNCCC(Oc1ccc(C(F)(F)F)cc1)c1ccccc1 (stereo not drawn) [fluoxetine, Fluoxetine hydrochloride, reference compound] | without effect | – | – | – | – | – | –
